Entries after “also recorded” stand apart in the source; their conditions may differ.
Test system: β-catenin-TCF4 reporter activity in Snu-398 cells (point-mutant β-catenin)
Assay: TopFlash reporter assay in Snu-398 cells
Assay type: cell-based, human
Conditions: 7 μM GC-1 (methods: 5-7 μM, 24 hours), vs DMSO
Excerpt: Three liver tumor cell lines Hep3B, HepG2 and Snu-398 cells were obtained from ATCC (Manassas, Va.). Cells were transfected simultaneously with Renilla reniformis luciferase (pRL-TK; Promega, Madison, Wis.) as a transfection control and TopFlash firefly luciferase plasmids (Upstate Biotechnology, Lake Placid, N.Y.), which contains three copies of the Tcf/Lef sites upstream of a thymidine kinase (TK) promoter and the firefly luciferase gene using Lipofectamine 2000 (Life Technologies). Twenty-four hours after transfection, cells were treated with either DMSO (Fisher Scientific) or 5-7 μM GC-1 (Medchem Express, Monmouth Junction, N.J.) for 24 hours. Lysates were harvested using the Dual-Luciferase Reporter Assay System (Promega, Madison, Wis.). Firefly luciferase signals were normalized to Renilla luciferase and ratio between groups compared by student's t-test to determine significance. P<0.05 was considered significant.

Cc1cc(OCC(=O)O)cc(C)c1Cc1ccc(O)c(C(C)C)c1 [GC-1, Sobetirome]
TopFlash luciferase reporter activity: no significant effect; also recorded: insignificant differences
